Results as given in US20220348876A1, “METABOLISM GUIDES DEFINITIVE LINEAGE SPECIFICATION DURING ENDOTHELIAL TO HEMATOPOIETIC TRANSITION” (Amniotics AB, priority 2019, published 2022).

Experiments:
[1] = test system: LT-HSCs; experiment: CFU assay of LT-HSCs sorted from E14.5 fetal livers of treated embryos; format: in vivo, mice; conditions: DCA-treated embryos vs control and UK5099
Description: (§1) Pregnant female C57Bl/6xB6.SJL mice were injected intraperitoneally at E9.5 with UK5099 (4 mg/kg) or DCA (200 mg/kg) or PBS (control). Embryos were harvested at E14.5 and individually weighed and processed. Fetal livers were dissected and homogenized in 800 μL ice cold PBS supplemented with 2% fetal bovine serum (FBS) and FL cells were washed in PBS with 2% FBS. For the differentiated lineage panel, cells were stained with B220 and CD19 (B-cell markers)-PE, CD3e-APC, Ter119-PeCy7 and CD71-FITC and analyzed on a BD FACSARIA III. For the HSC panel, samples were first treated with ammonium chloride solution (STEMCELL Technologies, France) to lyse red blood cells, washed twice in ice cold PBS with 2% FBS, stained with CD3e, B220, Ter119, Gr1 (Lineage)-PeCy5, c-Kit-Efluor780, Sca1-BV421, CD48-FITC, CD150-BV605 and 7-AAD (for dead cell exclusion) and analyzed on a BD FACSARIA III. […] For plating of CFU assays, 100 LT-HSCs were sorted (gating strategy shown in FIG. 13, d) and resuspended in 3.0 mL Methocult M3434 (STEMCELL Technologies, France). Each mixture was divided onto 2 wells of a non-tissue culture treated 6-well plate. Following a 14-day incubation in a humidified incubator at 37° C., 5% CO2, 20% O2, colonies were morphologically distinguished and scored.

[2] = test system: HE cells; experiment: confocal imaging: filipin III and histone acetylation staining; format: cell-based, human; conditions: day 2, DCA-treated HE cells
Description: For TMRE staining, on day 3 of subculture, half of the culture medium was removed and cells were stained with 20 nM TMRE (Thermo Fisher Scientific, T669) by direct addition into the culture medium of a 2× concentrated solution. After a 20-minute incubation at 37° C., wells were carefully washed with PBS and fresh HE medium was added. During acquisition, cells were kept in a humidified incubator at 37° C., 5% CO2, 20% O2. For immunocytochemistry, subculture day 2 HE cells (plated on coverslips) were washed twice in PBS, fixed with 4% PFA for 15 minutes at RT and washed three times with PBS. For filipin staining, fixed cells were incubated with 100 μg/ml filipin III (Sigma-Aldrich, F4767) for 1 hour, washed three times with PBS and rinsed with distilled water before mounting with PVA/DABCO. […] Intensity quantification was performed using the Fiji software as follows. For TMRE, using the brightfield channel, ROIs were selected for 5 spindle-shaped and 5 round cells (randomly chosen) and average intensity for each ROI was calculated in a summatory Z-stack of the TMRE channel. For filipin and acetylation, the summatory Z-stack for the filipin channel was obtained and average intensity calculated. A total of 2-3 independent experiments with 2-3 replicate wells were quantified. […]

[3] = test system: EHT cells; experiment: EHT cell subculture with compounds, flow cytometry; format: cell-based, human; conditions: deriving from EHT cells, day 6; UK5099 10 μM
Description: The RB9-CB1 human iPSC line was co-cultured with mouse embryonic fibroblasts (MEFs, Millipore), passaged every six days and processed to form embryoid bodies (EBs) as described previously (Guibentif, C. et al. Cell Reports 19, 10-19 (2017)). The differentiation protocol used in this study was previously described (Ditadi, A. & Sturgeon, C. M. Methods 101, 65-72 (2016)), however, small modifications were made to induce both primitive and definitive hematopoiesis, as indicated below and in FIG. 7, a. Newly-formed EBs were first kept in SFD medium supplemented with 1 ng/ml Activin A (on days 0-2) and 3 μM CHIR99021 (on day 2 only). At day 3, media was switched to “Day 3-SP34” medium supplemented with 1 ng/ml Activin A (on day 3 only) and 3 μM CHIR99021 (on day 3 only) until day 6. On day 6, media was replaced by “Day 6-SP34” medium, until day 8. […]
To measure proliferation, cells were processed with the CellTrace Violet (CTV) kit according to manufacturer's instructions (10-minute incubation) and fluorescence was measured on a BD LSRFortessa. […] Flow cytometry outputs were analyzed on FlowJo Software, with initial gatings on SSC-A/FSC-A, FSC-H/FSC-A, SSC-H/SSC-A and 7-AAD to exclude doublets and dead cells in all experiments.

[4] = test system: HE cells; experiment: globin transcript q-PCR in CFU colonies; format: cell-based, human; conditions: normalized to KLF1, relative to non-treated
Description: Subcultured HE cells were treated with StemPro Accutase Cell Dissociation Reagent for 2 minutes at 37° C. and dissociated cells were resuspended in 3 ml Methocult H4230 (STEMCELL Technologies, France) (prepared according to manufacturer's instructions, with 20 mL Iscove's Modified Dulbecco's Medium containing 2.5 μg hSCF, 5 μg GM-CSF, 2.5 μg IL-3 and 500 U EPO). Each mixture was divided onto 2 wells of a non-tissue culture treated 6-well plate. Following a 12-day incubation in a humidified incubator at 37° C., 5% CO2, 20% O2, colonies were morphologically distinguished and scored. For globin analysis, colonies in Methocult wells were harvested with PBS, washed thoroughly and frozen in RLT buffer with β-mercaptoethanol. Following RNA extraction and RT (Qiagen), gene expression was assessed with taqman probes by q-PCR. The taqman probes used in this study are HBA1/2 (Hs00361191_g1), HBE1 (Hs00362216_m1), HBG2/1 (Hs00361131_g1) and KLF1 (Hs00610592_m1).

[5] = test system: HE cells; experiment: Lymphoid differentiation assay on OP9-DL1 stroma; format: cell-based, human; conditions: 3-day subculture with UK5099 10 μM or DCA 3 mM, then 35-day co-culture, vs untreated
Description: Subculture day 3 HE cells cultured in the presence of UK5099 (10 μM), DCA (3 mM), or in glutamine-free medium with DMK (1.75 mM), nucleosides (1×) or NEAAs (1×), as indicated, were collected after a 2-minute incubation at 37° C. with StemPro Accutase Cell Dissociation Reagent and seeded onto 80% confluent OP9-DL1 stroma. Cells were cultured in OP9 medium with SCF (10 ng/ml), FLT3-L (10 ng/ml), IL-2 (5 ng/ml), IL-7 (5 ng/ml, first 15 days only) and IL-15 (10 ng/ml) with passaging onto new OP9-DL1 stroma every week, as described previously (Renoux, V. M. et al. Immunity 43, 394-407 (2015)). At day 35 of co-culture, cells were analyzed on a BD LSRFortessa.

[6] = test system: C57Bl/6xB6.SJL mice; experiment: In vivo compound injection of pregnant mice, fetal liver analysis at E14.5
Description: as §1

SMILES	decrease in the BFU-E to CFU-GM ratio [1] [%]	increase in cholesterol content [2] [%]	decrease in the CD43+CD45+ population [3]	HBA1-2 (adult globin) expression [4]	HBE1 (embryonic) globin transcripts [4]	HBG1-2 (fetal) globin transcripts [4]	NK cell differentiation (CD45+CD56+) [5]	effect on in vivo EHT and hematopoiesis ([6]; UK5099 4 mg/kg i.p. at E9.5)	frequency of phenotypic long-term HSCs (LT-HSCs) ([6]; fetal liver E14.5, i.p. at E9.5, UK5099 4 mg/kg or DCA 200 mg/kg)
O=C(O)C(Cl)Cl [DCA, dichloroacetate]	80	8							
N#C/C(=C\c1cn(-c2ccccc2)c2ccccc12)C(=O)O [UK5099]			2 -fold	did not have an effect	significant increase	significant increase	impaired NK cell formation	No significant effect	not affected
